For the test, the system named is P388 leukemia ip, CD2F1 mice, survival T/C. Briefly: NCI In Vivo Anticancer Drug Screen. Data for tumor model P388 Leukemia (intraperitoneal) in CD2F1 (CDF1) mice. As to conditions: endpoint: median survival time, higher = longer survival. Summed up:
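Mice carrying the transplanted tumor received test compound or vehicle. Survival was recorded in each group, and the value is the treated-group measurement divided by that of the vehicle-treated control group.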

Setting [1] is: dose: 50.0 mg/kg/injection, schedule: Q01DX005 (ip), vehicle: saline with Tween-80.
[2] abbreviates: dose: 100.0 mg/kg/injection, schedule: Q01DX005 (ip), vehicle: saline with Tween-80.
The mark [3] stands for this setting: dose: 200.0 mg/kg/injection, schedule: Q01DX005 (ip), vehicle: saline with Tween-80.
Setting [4] is: dose: 50.0 mg/kg/injection, schedule: Q01DX009 (ip), vehicle: saline with Tween-80.
[5] abbreviates: dose: 100.0 mg/kg/injection, schedule: Q01DX009 (ip), vehicle: saline with Tween-80.
The mark [6] stands for this setting: dose: 200.0 mg/kg/injection, schedule: Q01DX009 (ip), vehicle: saline with Tween-80.
The mark [7] stands for this setting: dose: 60.0 mg/kg/injection, schedule: Q01DX005 (ip), vehicle: saline with Tween-80.
Where [8] appears, read: dose: 120.0 mg/kg/injection, schedule: Q01DX005 (ip), vehicle: saline with Tween-80.
The mark [9] stands for this setting: dose: 240.0 mg/kg/injection, schedule: Q01DX005 (ip), vehicle: saline with Tween-80.
[10] abbreviates: dose: 50.0 mg/kg/injection, schedule: Q01DX009 (ip), vehicle: Klucel (hydroxypropylcellulose) (HPC).
Setting [11] is: dose: 100.0 mg/kg/injection, schedule: Q01DX009 (ip), vehicle: Klucel (hydroxypropylcellulose) (HPC).
Setting [12] is: dose: 200.0 mg/kg/injection, schedule: Q01DX009 (ip), vehicle: Klucel (hydroxypropylcellulose) (HPC).
The mark [13] stands for this setting: dose: 100.0 mg/kg/injection, schedule: Q04DX002 (ip), vehicle: Klucel (hydroxypropylcellulose) (HPC).
Where [14] appears, read: dose: 12.5 mg/kg/injection, schedule: Q01DX009 (ip), vehicle: saline with Tween-80.
The mark [15] stands for this setting: dose: 50.0 mg/kg/injection, schedule: Q01DX005 (ip), vehicle: Klucel (hydroxypropylcellulose) (HPC).
[16] abbreviates: dose: 25.0 mg/kg/injection, schedule: Q01DX009 (ip), vehicle: Klucel (hydroxypropylcellulose) (HPC).

Values joined by “and” are separate entries in the source; they are usually repeats but may differ in a detail not shown here. Identical values can stand only once. Inconclusive results and toxic doses are left out.

For the compound `C=C=CCC(=O)N1CCCC1`, the T/C (dose: 50.0 mg/kg/injection, schedule: Q04DX002 (ip), vehicle: saline with Tween-80) was 99 % of control; the T/C (dose: 100.0 mg/kg/injection, schedule: Q04DX002 (ip), vehicle: saline with Tween-80) is 101 % of control; the T/C (dose: 200.0 mg/kg/injection, schedule: Q04DX002 (ip), vehicle: saline with Tween-80) was 104 % of control.
For the compound `CCOC(=O)[C@H]1CC[C@@H](C(=O)OCC)N1Sc1ccc([N+](=O)[O-])cc1[N+](=O)[O-]`, the T/C is, setting by setting: under setting [1], 102 % of control; under setting [2], 102 % of control; under setting [3], 102 % of control.
As for `O=C(/C=C/c1ccc(O)c(O)c1)NCC(=O)NC(Cc1ccccc1)C(=O)O` (stereo not drawn), the T/C runs as follows: under setting [1], 99 % of control; under setting [2], 100 % of control; under setting [3], 103 % of control.
Consider `C=CCNC(=S)Nc1sc(C)c(C)c1C(=O)OCC`, for which the T/C was 100 % of control under setting [4], 100 % of control under setting [5] and 97 % of control under setting [6].
With `CN(C)c1ccc(/C=N/NC(=O)c2ccccc2N)cc1`, the T/C under setting [7] was 103 % of control, the T/C under setting [8] is 100 % of control and the T/C under setting [9] was 98 % of control.
For the compound `CCCCCCCCCCCC1C(C#N)C(=O)NC(=O)C1C#N` (stereo not drawn), the T/C is, setting by setting: under setting [10], 103 % of control; under setting [11], 94 % of control; under setting [12], 100 % of control.
As to `N/C(=N\O)c1cn(C2OC(CO)C(O)C2O)c2ncnc(N)c12` (stereo not drawn), the T/C was 154 % of control (dose: 2.5 mg/kg/injection, schedule: Q01DX009 (ip), vehicle: saline sonified) and 159 % of control (dose: 5.0 mg/kg/injection, schedule: Q01DX009 (ip), vehicle: saline sonified).
Consider `CC(=O)N1NC(=O)c2c([nH]c3ccccc23)C1c1ccccc1` (stereo not drawn), for which the T/C is, setting by setting: under setting [13], 101 % of control; (dose: 200.0 mg/kg/injection, schedule: Q04DX002 (ip), vehicle: Klucel (hydroxypropylcellulose) (HPC)) 106 % of control; (dose: 400.0 mg/kg/injection, schedule: Q04DX002 (ip), vehicle: Klucel (hydroxypropylcellulose) (HPC)) 101 % of control.
On to `CC(=O)N/N=C/C=C/c1ccccc1`, for which the T/C (dose: 3.13 mg/kg/injection, schedule: Q01DX009 (ip), vehicle: saline with Tween-80) was 117 % of control; the T/C (dose: 6.25 mg/kg/injection, schedule: Q01DX009 (ip), vehicle: saline with Tween-80) is 106 % of control; the T/C under setting [14] was 104 % of control.
Take `NC(=O)c1nnn2c1nc(N)c1cc(Cl)ccc12`: the T/C was 100 % of control under setting [15]; 104 % of control (dose: 100.0 mg/kg/injection, schedule: Q01DX005 (ip), vehicle: Klucel (hydroxypropylcellulose) (HPC)); 99 % of control (dose: 200.0 mg/kg/injection, schedule: Q01DX005 (ip), vehicle: Klucel (hydroxypropylcellulose) (HPC)).
As for `COc1ccc2nc(N)sc2c1`, the T/C is 97 % of control (dose: 12.5 mg/kg/injection, schedule: Q01DX009 (ip), vehicle: Klucel (hydroxypropylcellulose) (HPC)); 111 % of control under setting [14]; 99 % of control under setting [16]; 111 % of control (dose: 25.0 mg/kg/injection, schedule: Q01DX009 (ip), vehicle: saline with Tween-80); 107 % of control under setting [10]; 120 % of control under setting [4]. Also, the T/C under setting [11] was 107 % of control.
`CC(C)(C)[Si](C)(C)O[C@@H]1C=C(S(=O)(=O)c2ccccc2)[C@H](N2CCSCC2)C1`: the T/C was 101 % of control (dose: 12.5 mg/kg/injection, schedule: Q01DX005 (ip), vehicle: Klucel (hydroxypropylcellulose) (HPC)); 97 % of control (dose: 25.0 mg/kg/injection, schedule: Q01DX005 (ip), vehicle: Klucel (hydroxypropylcellulose) (HPC)); 92 % of control under setting [15].
With `CCOC(=O)C12C3C(=O)N(CC)C(=O)C3ON1OC1C(=O)N(CC)C(=O)C12` (stereo not drawn), the T/C reads like this: under setting [7], 100 % of control; under setting [8], 100 % of control; under setting [9], 95 % of control.
For the compound `CC(NC(=S)Nc1ccccc1)c1ccccc1` (stereo not drawn), the T/C by setting is: (dose: 25.0 mg/kg/injection, schedule: Q04DX002 (ip), vehicle: Klucel (hydroxypropylcellulose) (HPC)) 100 % of control; (dose: 50.0 mg/kg/injection, schedule: Q04DX002 (ip), vehicle: Klucel (hydroxypropylcellulose) (HPC)) 100 % of control; under setting [13], 96 % of control.
Regarding `CC/C(=C(\c1ccccc1)c1ccc(OCCNC)cc1)c1ccccc1`, the T/C reads like this: (dose: 15.0 mg/kg/injection, schedule: Q01DX005 (ip), vehicle: Klucel (hydroxypropylcellulose) (HPC)) 98 % of control; (dose: 30.0 mg/kg/injection, schedule: Q01DX005 (ip), vehicle: Klucel (hydroxypropylcellulose) (HPC)) 88 % of control; (dose: 60.0 mg/kg/injection, schedule: Q01DX005 (ip), vehicle: Klucel (hydroxypropylcellulose) (HPC)) 92 % of control.
Consider `O=c1c(-c2ccc3c(c2)OCO3)coc2c3c(ccc12)OCO3`, for which the T/C by setting is: (dose: 8.0 mg/kg/injection, schedule: Q01DX005 (ip), vehicle: Klucel (hydroxypropylcellulose) (HPC)) 93 % of control; (dose: 16.0 mg/kg/injection, schedule: Q01DX005 (ip), vehicle: Klucel (hydroxypropylcellulose) (HPC)) 100 % of control; (dose: 32.0 mg/kg/injection, schedule: Q01DX005 (ip), vehicle: Klucel (hydroxypropylcellulose) (HPC)) 94 % of control; (dose: 64.0 mg/kg/injection, schedule: Q01DX005 (ip), vehicle: Klucel (hydroxypropylcellulose) (HPC)) 88 % of control.
Regarding `O=C1NC(=O)C(=Cc2cc3c(cc2Br)OCO3)C(=O)N1`, the T/C is 101 % of control under setting [16]; 101 % of control under setting [10]; 114 % of control under setting [4]; 117 % of control under setting [11]; 110 % of control and 124 % of control under setting [5]; 117 % of control (dose: 166.0 mg/kg/injection, schedule: Q01DX009 (ip), vehicle: saline with Tween-80). Moreover, the T/C is, setting by setting: under setting [12], 113 % of control; under setting [6], 96 % of control.
For the compound `c1cc(-c2cc3ccc(C4=NCCN4)cc3s2)ccc1C1=NCCN1`, the T/C by setting is: (dose: 25.0 mg/kg/injection, schedule: Q04DX003 (ip), vehicle: saline) 115 % of control; (dose: 50.0 mg/kg/injection, schedule: Q04DX003 (ip), vehicle: saline) 115 % of control.
With `Cc1ccc(SCc2c(COc3ccc(Cl)cc3)sc3ccc(Cl)cc23)cc1`, the T/C reads like this: (dose: 100.0 mg/kg/injection, schedule: Q01DX001 (ip), vehicle: saline with Tween-80) 90 % of control; (dose: 200.0 mg/kg/injection, schedule: Q01DX001 (ip), vehicle: saline with Tween-80) 86 % of control; (dose: 400.0 mg/kg/injection, schedule: Q01DX001 (ip), vehicle: saline with Tween-80) 100 % of control.
`O=C(CC(c1cccnc1)C(C(=O)c1ccc(Cl)cc1)C(CC(=O)c1ccc(Cl)cc1)c1cccnc1)c1ccc(Cl)cc1` (stereo not drawn): the T/C was 90 % of control under setting [1], 90 % of control under setting [2] and 92 % of control under setting [3].
As to `CN(C)C1=NC(NCCc2ccccc2)(N(C)C)OC(N(C)C)=N1` (stereo not drawn), the T/C by setting is: (dose: 25.0 mg/kg/injection, schedule: Q01DX005 (ip), vehicle: saline) 100 % of control; (dose: 50.0 mg/kg/injection, schedule: Q01DX005 (ip), vehicle: saline) 107 % of control; (dose: 100.0 mg/kg/injection, schedule: Q01DX005 (ip), vehicle: saline) 100 % of control.
`O=S(=O)(c1ccc(Cl)cc1)N(CCCCN(S(=O)(=O)c1ccc(Cl)cc1)S(=O)(=O)c1ccc(Cl)cc1)S(=O)(=O)c1ccc(Cl)cc1`: the T/C is 99 % of control under setting [7], 93 % of control under setting [8] and 90 % of control under setting [9].
As to `CCOC(=O)C1C(=O)C(CN(CCCl)CCCl)C(=O)C(C(=O)OCC)C1c1ccc(O)cc1` (stereo not drawn), the T/C (dose: 4.6 micrograms/kg/injection, schedule: Q01DX009 (ip), vehicle: Klucel (hydroxypropylcellulose) (HPC)) was 104 % of control; the T/C (dose: 9.0 micrograms/kg/injection, schedule: Q01DX009 (ip), vehicle: Klucel (hydroxypropylcellulose) (HPC)) was 109 % of control; the T/C (dose: 18.7 micrograms/kg/injection, schedule: Q01DX009 (ip), vehicle: Klucel (hydroxypropylcellulose) (HPC)) is 109 % of control; the T/C (dose: 37.5 micrograms/kg/injection, schedule: Q01DX009 (ip), vehicle: Klucel (hydroxypropylcellulose) (HPC)) was 116 % of control.

The values above are taken from PubChem BioAssay AID330 (DTP/NCI, 2004).
